Experimental data reported in paper PMC3806475, “Marine Derived Hamacanthins as Lead for the Development of Novel PDGFRβ Protein Kinase Inhibitors” (Marine Drugs, 2013).

Experiments:
Aurora-B = Aurora-B (Homo sapiens, UniProt Q96GD4); test: 33PanQinase protein kinase activity assay; format: biochemical; details: recombinant kinase, 1 µM ATP
EGFR = EGFR (Homo sapiens, UniProt P00533); test: biochemical
TIE2 = TIE2 (Homo sapiens, UniProt Q02763); test: 33PanQinase protein kinase activity assay; format: biochemical; details: recombinant kinase, 1 µM ATP
FAK = FAK (Homo sapiens, UniProt Q05397); test: 33PanQinase protein kinase activity assay; format: biochemical; details: recombinant kinase, 1 µM ATP
[1] = system: TK 10, 786-0, M 14, and MCF-7 cell lines; test: Cell viability assay (CellTiter-Glo), other cell lines; format: cell-based; details: TK 10, 786-0, M 14, MCF-7; 48 h; compared with HL-60
Procedure: In order to determine the cytotoxic profiles of compounds 5 and 8, they were evaluated in cell viability assays (Figure 7) including HL-60, a human myeloblastic leukemia cell line, as it has been shown that the proliferation and differentiation of these cells depend upon PDGFR-signalling. Cells were treated with compounds 5 and 8 and after 48 h incubation, their viability was determined. […] This is in line with the notion that HL-60 cells depend on PDGFR-signaling.
The cells were grown in RPMI 1640 Glutamax with 10% FCS, 100 µg/mL streptomycin and 100 U/mL Penicillin G and incubated in a 5% CO2 humidified atmosphere at 37 °C. For proliferation experiments, cells were seeded in 20 µL pro well into 384-well Greiner 384 CellStar® plates (Greiner Bio-One I. AG, Kremsmünster, AT). In addition to the test plates, one plate was prepared for the reference measurement at day zero. All plates were incubated for 24 h at 37 °C in a humidified atmosphere with 5% CO2. […] The viability of the cells in the day zero control plates were determined on the same day without adding any compounds. […] The luminescence signal was measured at the EnSpire® Multimode Plate Reader (PerkinElmer, Waltham, MA, USA). […] Measured raw data were converted into percent of cell growth by using the high control (0.5% DMSO v/v without compound) and the day zero control. […]

Aurora-A = Aurora-A (Homo sapiens, UniProt O14965); test: 33PanQinase protein kinase activity assay; format: biochemical; details: recombinant kinase, 1 µM ATP
SRC = SRC (Homo sapiens, UniProt P12931); test: 33PanQinase protein kinase activity assay; format: biochemical; details: recombinant kinase, 1 µM ATP
AKT1 = AKT1 (Homo sapiens, UniProt P31749); test: 33PanQinase protein kinase activity assay; format: biochemical; details: recombinant kinase, 1 µM ATP
IGF1R = IGF1R (Homo sapiens, UniProt P08069); test: 33PanQinase protein kinase activity assay; format: biochemical; details: recombinant kinase, 1 µM ATP
INSR = INSR (Homo sapiens, UniProt P06213); test: 33PanQinase protein kinase activity assay; format: biochemical; details: recombinant kinase, 1 µM ATP
EPHB4 = EPHB4 (Homo sapiens, UniProt P54760); test: 33PanQinase protein kinase activity assay; format: biochemical; details: recombinant kinase, 1 µM ATP
FLT3 = FLT3 (Homo sapiens, UniProt P36888); test: 33PanQinase protein kinase activity assay; format: biochemical; details: recombinant kinase, 1 µM ATP
FLT3, sequence (P36888 27-993): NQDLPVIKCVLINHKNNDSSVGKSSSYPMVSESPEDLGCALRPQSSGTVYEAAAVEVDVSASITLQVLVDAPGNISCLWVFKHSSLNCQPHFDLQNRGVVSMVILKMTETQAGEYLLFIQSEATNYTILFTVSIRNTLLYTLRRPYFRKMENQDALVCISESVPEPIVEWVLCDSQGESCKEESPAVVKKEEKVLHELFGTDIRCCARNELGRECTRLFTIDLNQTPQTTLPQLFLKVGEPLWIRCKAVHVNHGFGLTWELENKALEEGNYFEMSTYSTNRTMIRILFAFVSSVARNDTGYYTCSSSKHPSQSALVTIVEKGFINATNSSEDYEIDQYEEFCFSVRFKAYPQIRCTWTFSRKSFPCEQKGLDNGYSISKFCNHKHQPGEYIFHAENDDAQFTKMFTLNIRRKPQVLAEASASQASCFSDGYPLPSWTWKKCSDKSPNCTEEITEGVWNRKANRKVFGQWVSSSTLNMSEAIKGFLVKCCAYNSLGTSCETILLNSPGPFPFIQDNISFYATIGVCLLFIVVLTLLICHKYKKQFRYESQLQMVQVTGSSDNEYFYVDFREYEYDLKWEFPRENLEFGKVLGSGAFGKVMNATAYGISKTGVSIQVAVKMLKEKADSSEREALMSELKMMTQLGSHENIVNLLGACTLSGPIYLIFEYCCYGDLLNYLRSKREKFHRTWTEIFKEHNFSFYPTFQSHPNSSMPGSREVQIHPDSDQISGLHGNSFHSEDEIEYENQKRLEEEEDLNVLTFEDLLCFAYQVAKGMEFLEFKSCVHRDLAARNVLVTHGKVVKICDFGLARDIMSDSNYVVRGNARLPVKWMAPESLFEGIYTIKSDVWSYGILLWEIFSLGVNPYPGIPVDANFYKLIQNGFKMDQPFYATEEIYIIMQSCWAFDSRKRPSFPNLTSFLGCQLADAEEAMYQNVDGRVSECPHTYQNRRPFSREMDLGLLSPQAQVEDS
Source text: (§1) Recombinant protein kinases.

COT = COT (Homo sapiens, UniProt P41279); test: 33PanQinase protein kinase activity assay; format: biochemical; details: recombinant kinase, 1 µM ATP
Source text: as §1

VEGF-R3 = VEGF-R3 (Homo sapiens, UniProt P35916); test: 33PanQinase protein kinase activity assay; format: biochemical; details: recombinant kinase, 1 µM ATP
VEGF-R3, sequence (P35916 25-1363): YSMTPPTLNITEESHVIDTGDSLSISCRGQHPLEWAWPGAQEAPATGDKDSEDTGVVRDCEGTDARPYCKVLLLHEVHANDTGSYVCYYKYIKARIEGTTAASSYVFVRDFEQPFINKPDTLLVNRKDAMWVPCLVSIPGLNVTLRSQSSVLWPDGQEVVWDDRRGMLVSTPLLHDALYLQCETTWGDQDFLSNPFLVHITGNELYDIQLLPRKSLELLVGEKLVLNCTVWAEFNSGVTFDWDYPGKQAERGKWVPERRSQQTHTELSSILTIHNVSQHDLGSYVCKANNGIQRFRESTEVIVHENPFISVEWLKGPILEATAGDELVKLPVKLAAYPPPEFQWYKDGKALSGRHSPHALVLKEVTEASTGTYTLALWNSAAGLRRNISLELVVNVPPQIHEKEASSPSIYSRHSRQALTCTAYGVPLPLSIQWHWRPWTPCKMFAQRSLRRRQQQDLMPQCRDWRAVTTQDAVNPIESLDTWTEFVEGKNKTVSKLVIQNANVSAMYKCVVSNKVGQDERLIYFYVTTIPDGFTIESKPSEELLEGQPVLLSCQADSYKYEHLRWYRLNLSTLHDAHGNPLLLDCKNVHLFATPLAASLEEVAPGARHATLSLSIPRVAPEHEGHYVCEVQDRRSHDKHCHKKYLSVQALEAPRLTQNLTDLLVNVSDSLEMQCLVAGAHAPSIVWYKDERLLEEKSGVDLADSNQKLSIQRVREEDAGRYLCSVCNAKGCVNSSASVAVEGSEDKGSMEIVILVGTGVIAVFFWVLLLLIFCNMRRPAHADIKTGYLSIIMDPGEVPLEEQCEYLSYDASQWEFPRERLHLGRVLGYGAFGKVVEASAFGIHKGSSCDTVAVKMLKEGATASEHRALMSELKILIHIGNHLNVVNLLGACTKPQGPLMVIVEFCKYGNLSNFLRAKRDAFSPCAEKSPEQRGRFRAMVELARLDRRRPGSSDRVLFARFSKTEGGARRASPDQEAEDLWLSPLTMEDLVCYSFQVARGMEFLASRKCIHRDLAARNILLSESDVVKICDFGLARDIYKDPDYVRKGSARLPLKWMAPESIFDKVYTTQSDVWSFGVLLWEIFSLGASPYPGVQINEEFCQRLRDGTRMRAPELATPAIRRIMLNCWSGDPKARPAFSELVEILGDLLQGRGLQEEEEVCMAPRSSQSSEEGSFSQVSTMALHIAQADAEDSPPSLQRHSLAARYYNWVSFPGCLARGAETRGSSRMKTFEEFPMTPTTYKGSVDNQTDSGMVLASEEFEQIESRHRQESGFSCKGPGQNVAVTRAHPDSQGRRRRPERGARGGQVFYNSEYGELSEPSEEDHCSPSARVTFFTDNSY
Source text: as §1

SAK = SAK (Homo sapiens, UniProt O00444); test: 33PanQinase protein kinase activity assay; format: biochemical; details: recombinant kinase, 1 µM ATP
SAK, sequence (O00444 whole entry): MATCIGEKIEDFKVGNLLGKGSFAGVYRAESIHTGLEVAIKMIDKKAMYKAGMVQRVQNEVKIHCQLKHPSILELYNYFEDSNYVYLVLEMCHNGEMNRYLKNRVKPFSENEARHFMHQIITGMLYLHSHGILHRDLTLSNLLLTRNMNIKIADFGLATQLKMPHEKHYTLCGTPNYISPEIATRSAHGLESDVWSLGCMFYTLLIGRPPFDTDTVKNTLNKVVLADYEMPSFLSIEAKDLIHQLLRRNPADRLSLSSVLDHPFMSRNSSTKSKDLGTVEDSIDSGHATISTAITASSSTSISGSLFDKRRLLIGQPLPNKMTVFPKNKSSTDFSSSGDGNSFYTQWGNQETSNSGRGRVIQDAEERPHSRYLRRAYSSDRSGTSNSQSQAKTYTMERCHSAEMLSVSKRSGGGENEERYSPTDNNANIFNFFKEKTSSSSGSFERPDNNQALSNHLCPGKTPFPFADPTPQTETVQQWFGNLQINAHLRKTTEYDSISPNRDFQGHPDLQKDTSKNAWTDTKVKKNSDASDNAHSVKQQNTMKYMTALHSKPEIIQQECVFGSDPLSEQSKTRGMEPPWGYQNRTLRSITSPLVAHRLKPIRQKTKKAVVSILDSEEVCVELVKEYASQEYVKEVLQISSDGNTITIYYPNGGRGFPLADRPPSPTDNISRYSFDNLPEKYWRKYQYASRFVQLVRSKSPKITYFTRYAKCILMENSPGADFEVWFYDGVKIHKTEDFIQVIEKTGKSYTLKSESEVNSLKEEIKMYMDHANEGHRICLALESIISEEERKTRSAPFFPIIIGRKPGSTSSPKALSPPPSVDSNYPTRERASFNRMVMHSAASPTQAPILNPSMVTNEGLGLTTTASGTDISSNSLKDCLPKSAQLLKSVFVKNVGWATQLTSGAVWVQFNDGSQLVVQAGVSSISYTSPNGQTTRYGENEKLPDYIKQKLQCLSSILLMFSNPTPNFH
Source text: as §1

MET = MET (Homo sapiens, UniProt P08581); test: 33PanQinase protein kinase activity assay; format: biochemical; details: recombinant kinase, 1 µM ATP
Source text: as §1

B-RAF-VE = B-RAF-VE (Homo sapiens, UniProt P15056, V600E); test: 33PanQinase protein kinase activity assay; format: biochemical; details: recombinant kinase, 1 µM ATP
Source text: as §1

VEGF-R2 = VEGF-R2 (Homo sapiens, UniProt P35968); test: 33PanQinase protein kinase activity assay; format: biochemical; details: recombinant kinase, 1 µM ATP
Source text: as §1

CK2a1 = CK2a1 (Homo sapiens, UniProt P68400); test: 33PanQinase protein kinase activity assay; format: biochemical; details: recombinant kinase, 1 µM ATP
CK2a1, sequence (P68400 whole entry): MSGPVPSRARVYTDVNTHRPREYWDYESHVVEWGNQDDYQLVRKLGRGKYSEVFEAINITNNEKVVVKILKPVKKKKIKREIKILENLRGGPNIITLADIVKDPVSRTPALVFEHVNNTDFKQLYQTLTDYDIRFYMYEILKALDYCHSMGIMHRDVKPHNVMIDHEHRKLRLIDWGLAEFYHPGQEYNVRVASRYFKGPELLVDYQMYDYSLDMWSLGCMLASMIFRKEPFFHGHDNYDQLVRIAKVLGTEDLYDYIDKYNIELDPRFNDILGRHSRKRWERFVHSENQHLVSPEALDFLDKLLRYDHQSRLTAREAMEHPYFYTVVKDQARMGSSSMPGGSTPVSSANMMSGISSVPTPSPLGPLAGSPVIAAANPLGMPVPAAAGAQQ
Source text: as §1

ERBB2 = ERBB2 (Homo sapiens, UniProt P04626); test: 33PanQinase protein kinase activity assay; format: biochemical; details: recombinant kinase, 1 µM ATP
Source text: as §1

PLK1 = PLK1 (Homo sapiens, UniProt P53350); test: 33PanQinase protein kinase activity assay; format: biochemical; details: recombinant kinase, 1 µM ATP
Source text: as §1

ARK5 = ARK5 (Homo sapiens, UniProt O60285); test: 33PanQinase protein kinase activity assay; format: biochemical; details: recombinant kinase, 1 µM ATP
PDGFRβ = PDGFRβ (Homo sapiens, UniProt P09619); test: 33PanQinase protein kinase activity assay; format: biochemical; details: recombinant kinase, 1 µM ATP
PDGFRβ, sequence (P09619 33-1106): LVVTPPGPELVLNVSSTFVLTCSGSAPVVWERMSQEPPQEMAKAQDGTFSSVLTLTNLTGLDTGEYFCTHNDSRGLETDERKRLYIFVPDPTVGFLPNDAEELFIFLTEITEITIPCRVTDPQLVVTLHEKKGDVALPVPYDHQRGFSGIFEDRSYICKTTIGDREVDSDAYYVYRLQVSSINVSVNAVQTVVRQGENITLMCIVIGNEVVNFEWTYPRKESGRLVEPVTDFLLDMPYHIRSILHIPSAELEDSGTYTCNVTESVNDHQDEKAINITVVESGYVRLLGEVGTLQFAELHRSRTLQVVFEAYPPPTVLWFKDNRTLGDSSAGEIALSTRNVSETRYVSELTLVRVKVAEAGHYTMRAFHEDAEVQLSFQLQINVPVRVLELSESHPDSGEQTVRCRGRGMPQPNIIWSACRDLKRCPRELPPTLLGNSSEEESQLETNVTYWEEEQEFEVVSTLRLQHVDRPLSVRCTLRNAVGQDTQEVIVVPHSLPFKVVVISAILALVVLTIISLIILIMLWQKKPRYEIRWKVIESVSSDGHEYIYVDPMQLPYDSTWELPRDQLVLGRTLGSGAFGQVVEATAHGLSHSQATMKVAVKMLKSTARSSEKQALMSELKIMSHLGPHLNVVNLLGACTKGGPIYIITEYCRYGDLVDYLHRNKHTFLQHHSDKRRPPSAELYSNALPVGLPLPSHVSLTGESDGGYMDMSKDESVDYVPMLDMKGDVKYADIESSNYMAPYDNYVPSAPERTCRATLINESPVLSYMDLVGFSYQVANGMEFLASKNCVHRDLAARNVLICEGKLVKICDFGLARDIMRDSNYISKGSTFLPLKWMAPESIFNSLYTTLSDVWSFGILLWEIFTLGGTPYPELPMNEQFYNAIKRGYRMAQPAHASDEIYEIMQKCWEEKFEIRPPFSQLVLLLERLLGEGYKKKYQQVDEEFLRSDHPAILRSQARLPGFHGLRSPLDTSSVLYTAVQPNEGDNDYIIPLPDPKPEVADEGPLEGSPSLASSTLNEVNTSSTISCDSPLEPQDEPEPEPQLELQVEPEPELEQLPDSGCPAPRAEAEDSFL

CDK2/CycA = CDK2/CycA (Homo sapiens, UniProt P24941); test: 33PanQinase protein kinase activity assay; format: biochemical; details: recombinant kinase, 1 µM ATP
CDK4/CycD1 = CDK4/CycD1 (Homo sapiens, UniProt P11802); test: 33PanQinase protein kinase activity assay; format: biochemical; details: recombinant kinase, 1 µM ATP
[2] = system: bacterial methicillin-resistant Staphylococcus (MRSA-PK); set-up: method as in PMID 22030393; details: cited from earlier work
HL-60 cells = test: Cell viability assay (CellTiter-Glo); format: cell-based; details: Homo sapiens, 48 h incubation

Aurora-B, sequence (Q96GD4 whole entry): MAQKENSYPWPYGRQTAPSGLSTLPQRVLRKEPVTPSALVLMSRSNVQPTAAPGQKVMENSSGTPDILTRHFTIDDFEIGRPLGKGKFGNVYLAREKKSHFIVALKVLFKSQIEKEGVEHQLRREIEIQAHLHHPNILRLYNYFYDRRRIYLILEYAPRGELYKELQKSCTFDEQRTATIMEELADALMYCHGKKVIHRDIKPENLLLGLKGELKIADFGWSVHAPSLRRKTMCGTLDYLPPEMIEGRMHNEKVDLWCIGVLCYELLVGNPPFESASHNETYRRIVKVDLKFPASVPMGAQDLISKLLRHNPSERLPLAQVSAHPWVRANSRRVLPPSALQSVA

IC50 (PDGFRβ) [µM]	Compound	IC50 (Aurora-B) [µM]	cytotoxic effect on the other cells tested [1]	IC50 (FLT3) [µM]	IC50 (COT) [µM]	IC50 (VEGF-R3) [µM]	IC50 (SAK) [µM]	IC50 (MET) [µM]	IC50 (B-RAF-VE) [µM]	IC50 (CK2a1) [µM]	IC50 (ERBB2) [µM]	IC50 (PLK1) [µM]	further results
0.5	COc1cc(-c2nc(-c3c[nH]c4ccccc34)c[nH]c2=O)cc(OC)c1OC [Compound 5, 5-(1H-indole-3-yl)-3-(3,4,5-trimethoxyphenyl)pyrazin-2(1H)-one]	> 100	significantly less affected	36	> 100	5	> 100	> 100	> 100	> 100	> 100	> 100	IC50 (EGFR): > 100 µM; IC50 (TIE2): > 100 µM; IC50 (FAK): > 100 µM; IC50 (Aurora-A): > 100 µM; IC50 (SRC): > 100 µM; IC50 (AKT1): > 100 µM; IC50 (IGF1R): > 100 µM; IC50 (INSR): > 100 µM; IC50 (EPHB4): > 100 µM; IC50 (µM) VEGF-R3 (VEGF-R3): low µM range; IC50 (VEGF-R2): 4 µM; IC50 (ARK5): > 100 µM
19	COc1ccc(-c2nc(-c3c[nH]c4ccccc34)c[nH]c2=O)cc1 [Compound 7, 3-(4-methoxyphenyl)-5-(1H-indol-3-yl)-1H-pyrazin-2-one]												
	3-(indole-3-yl)-4-(3,4,5-trimethoxyphenyl)-1H-pyrrole-2,5-dione [Compound 1, reference compound]	66		61	32	0.037	10	60	> 100	> 100	51	> 100	IC50 (CDK2/CycA): 66 µM; IC50 (CDK4/CycD1): 56 µM
	O=C1NC[C@@H](c2c[nH]c3cc(Br)ccc23)N[C@H]1c1c[nH]c2cc(Br)ccc12 [cis-3,4-dihydro hamacanthin B]												IC50 [2]: 0.016 µM
1.5	COc1ccc(-c2nc(-c3c[nH]c4ccccc34)c[nH]c2=O)cc1OC [Compound 6, 3-(3,4-dimethoxyphenyl)-5-(1H-indol-3-yl)-1H-pyrazin-2-one]												
0.3	COc1cc(-c2nc(-c3c[nH]c4ccc(O)cc34)c[nH]c2=O)cc(OC)c1OC [Compound 8, 5-(5-hydroxy-1H-indole-3-yl)-3-(3,4,5-trimethoxyphenyl)pyrazin-2(1H)-one]		significantly less affected										IC50 (HL-60 cells): 30 µM
